Reference: US10660789B2, “1,4-dihydropyridine derivatives with HSP modulating activity” (Richter Gedeon NYRT., priority 2011, dated 2020)
Structures can show the parent of a compound that is named as a salt.

What was measured:
[1] = test system: APP mutant transgenic mice; test: Hippocampal histology after Morris water maze (cresyl violet, tau immunohistochemistry, Golgi staining); type: in vivo, mouse
Procedure: After the Morris water maze task the animals were deeply anesthetized, and transcardialy perfused with 10 ml 4° C. phosphate-buffered saline solution (PBS), followed by 30 ml of 4° C. paraformaldehyde solution (4% in phosphate buffer, pH 7.4). The brains were removed and postfixed for 24 h in the same fixative (4° C.) and subsequently cryoprotected in 30% sucrose solution for 72 h (4° C.). Brains were cut on a cryostat in 30 μm hippocampal coronal sections, and the slices were collected and stored at 4° C. in PBS for free floating immunohistochemistry.
Cresyl violet staining (Nissl staining) is used for neuronal tissue; the stain binds to the acidic components of the neuronal cytoplasm, showing the number of functioning neurons. Slides were stained into the filtered 1% crezyl violet solution for 5 min. and were dehydrated in 50% 70%, 95%, 2×100% ethanol for 1 minute each. After that slides were placed in xylene for another 10 minutes, and coversliped.
Neurofibrillary tangles (NTFs) are intraneuronal aggregates; these are abnormal accumulations associated with neurodegenerative diseases. To visualize the presence of these structures, we used for immunostaining human PHF-tau MAb(clone AT100) primer antibody at 1:800 dilution in PBS (pH 7.4).
The methodological steps in all three immunohistological techniques were the same. After quenching of endogenous peroxidase activity and a blocking step, the sections were incubated overnight at 4° C. with the primary antibody in the presence of 20% goat serum and Triton X-100 0.2%. On the following day, the sections were washed in PBS and incubated for 1 h at room temperature with the secondary biotinylated goat anti-mouse antibody (Vector Laboratories, Burlingame, Calif., USA, 1:400). […]
Dendritic spines change their density after a CNS injury, to visualize this effect, we made Golgi staining. […] The slides were analyzed with confocal light microscopy, we counted dendritic spines 100 μm tong on hippocampal pyramidal cells, and start point was 100 μm farther from the stoma. […]

Hsp70 promoter = test: Hsp70 promoter-YFP reporter in SHSY5Y cells, flow cytometry; type: cell-based, human
Procedure: The Hsp co-inducing effect of the compounds on stress response was tested on B16 mouse melanoma and SHSY5Y human neuroblastoma cell lines stably transfected with Hsp promoter probing plasmids. This kind of promoter probing, using the promoter region of a given gene conjugated with fluorescent protein is used as a best and fastest test system for finding drugs which modulate the activity of the gene followed by the given promoter (Wyshocka et al., Mol. Cel. Biochem. 215:153-156, 2000).
(§1) Reporter plasmids, containing the Hsp70 and/or Hsp25 promoter conjugated to either YFP or GFP (yellow or green fluorescent protein), were stably transfected into the cells and the expression of YFP or GFP was followed by flow cytometry. Cells were either kept at 37° C. or exposed to heat shock at 42° C. for 1 hour followed by a 16 hour recovery period at 37° C. in the presence or absence of different concentrations of the test compound. After recovery the expression of YFP or GFP which is in straight correlation with the promoter activity of Hsp70 or Hsp27 genes was followed by measuring the fluorescence intensity of the cells by flow cytometry. Fluorescence intensity is in straight correlation with the amount of fluorescent protein (GFP or YFP) produced under the control of hsp promoter. The mean fluorescence intensity of YFP or GFP produced is shown as “Hsp promoter activity”.
The fluorescence intensity of YFP produced as a result of Hsp70 promoter activity was measured by flow cytometry.
Cells were homogenously distributed on 6-well plates in 1×10^5 cells/well density. B16-pHsp25-GFP and B16-pHsp70-YFP melanoma cells were grown in RPMI-1640 medium supplemented with 10% Fetal bovine serum (FBS), penicillin (200 units/ml), streptomycin (200 μg/ml) and 2 mM L-Glutamine. […] The changes in cells' fluorescence were detected using BD FACSCalibur flow cytometer.

Hsp27 = test: Other in vitro effects, Hsp27 (Table 3); type: cell-based; parameters: key: +: co-inducing activity; −: silencing activity; 0: with the experimental methods applied no other HSP modulating effects could be identified
Procedure: as §1

Compound: COC(=O)C1=C(CCN(C)C)N(C)C(CCN(C)C)=C(C(=O)OC)C1c1ccc(C(F)(F)F)cc1 [Example 23, Dimethyl 4-(4-trifuoromethylphenyl)-2,6-bis-(2-dimethylaminoethyl)-1-methyl-1,4-dihydropyridine-3,5-dicarboxylate dihydrochloride]
- Golgi staining, dendritic spine density ([1]; hippocampal pyramidal cells): the spine density was the highest in the APP mutant compound of Ex. 23 treated group
- tau-immunohistochemistry ([1]; hippocampus, APP mutant mice): could inhibit the taupathology
- cresyl-violet staining, alive neurons ([1]; hippocampus, versus negative control group): more alive neurons
- induction of Hsp70 gene activity (Hsp70 promoter; 20 μM, SHSY5Y cells at 42° C., FIG. 1): approximately 20 times
- activity of the promoter of the hsp70 gene at 37° C. (Hsp70 promoter; SHSY5Y cells, 37° C., no heat stress): does not affect the activity of the promoter of the hsp70 gene at 37 °C
- increase in HSP70 expression (Hsp70 promoter; SHSY5Y cells, relative to cells treated at 42° C. without the compound, FIG. 2): 23 fold
- Other in vitro effects: Hsp27 (Hsp27): Hsp27 0
